# Data reported in PubChem BioAssay AID2060908 (Molecular Pharmacology Branch, DTP, NCI, 2025).
# System: 186277-243-T-J2-PDC complex spheroids, viability
# Assay: Anticancer human tumor 186277-243-T-J2-PDC patient-derived colon adenocarcinoma cell line growth inhibition [RAS]
# Details: for IC50: curve of first compound; for viability, T/C: stronger effect = lower value
# Text: RAS pathway inhibitors in Combinations in Complex Spheroids
# A high-throughput screen of multi-cell type tumor spheroids was designed to identify active combinations of RAS pathway inhibitors and targeted small molecules. Complex spheroids include a stromal component modeled by human endothelial cells (HUVEC) and fibroblasts modeled by human mesenchymal stem cells (MSCs). The concentration ranges selected for each drug and investigational agent were based upon clinically achievable concentrations if the clinical Cmax of the agent was known.
# Compounds. The drugs and investigational agents: abemaciclib (NSC768073), cobimetinib (NSC768068), divarasib (GDC6063, NSC841802), docetaxel (NSC628503), GDC-1971 (RLY-1971, NSC841576), gemcitabine (NSC613327), inavolisib (NSC800729), ipatasertib (NSC767898), KB-0742 (NSC834161), MRTX-1133 (NSC836407), osimertinib (NSC779217), RMC-4630 (NSC839698), RMC-6236 (NSC851965), RMC-6291 (NSC852671), Ro-3306 (NSC812927), sapanisertib (NSC764658), SN-38 (NSC673596), staurosporine (NSC755774), SY5609 (NSC837396), and tovorafenib (DAY101, NSC766906), were obtained from the National Cancer Institute (NCI) Developmental Therapeutics Program Chemical Repository. The FDA-approved anticancer drug set is available from the NCI Developmental Therapeutics Program. […] The stock solutions were prepared in dimethyl sulfoxide (DMSO, Sigma-Aldrich, St. Louis, MO, cat. D2650) at 800-fold the tested concentration and stored at -70 degrees C prior to their use. All drugs and investigational agents were tested over a range starting from a high concentration at or near the clinical Cmax and decreasing in half-log increments. If the clinical Cmax for an agent had not been determined, the highest concentration tested was 10 microM.
# Cell Culture. All cells were maintained in an incubator at 37 degrees C and 5% CO2 with 95% humidity. The PDC lines were cultured according to standard operating procedures established by the NCI PDMR. All PDCs were thawed and cultured in Matrigel-coated flasks prepared with a working solution of 1X Ham's F-12 nutrient mix, without supplementation (Invitrogen, Waltham, MA, cat. 11765054), 100 U/mL penicillin-streptomycin (Invitrogen, cat. 15140122), and 2.5% Matrigel (Corning Inc., Corning, NY, cat. 354248) for the first three passages. The 362531-283-R-J2-PDC and 782815-120-R-J1-PDC lines were cultured in 6C/Colon 1B media, which includes advanced DMEM/F-12 (Thermo Fisher Scientific, cat. 12634028), 10 mM HEPES (Thermo Fisher Scientific, cat. 15630080), 1X GlutaMAX supplement (Thermo Fisher Scientific, cat. 35050061), 0.1 mg/mL primocin (InvivoGen, San Diego, CA, cat. ant-pm-2), 10% defined fetal bovine serum, heat inactivated (HyClone Laboratories Inc., Logan, UT, cat. SH30070.03HI), 50% L-WRN conditioned media (ATCC, cat. CRL-3276), 1.25 mM N-Acetyl-L-cysteine (Sigma-Aldrich, cat. A9165), 10 mM nicotinamide (Sigma-Aldrich, cat. N0636), 1X B-27 supplement (Thermo Fisher Scientific, cat. 17504044), 1X N-2 supplement (Thermo Fisher Scientific, cat. 17502048), 50 ng/mL human EGF (Thermo Fisher Scientific, cat. PHG0311), and 10 microM Y-27632 dihydrochloride (Tocris Bioscience, cat. 1254). The K12877-001-R-J1-PDC line was cultured in 6I media, which includes all 6C/Colon 1B media plus 10 ng/mL human FGF-10 (PeproTech, cat. 100-26), 1 ng/mL human FGF-2 (PeproTech, cat. 100-18B), 1 µM prostaglandin E2 (Tocris Bioscience, cat. 2296), […] hydrocortisone (Sigma-Aldrich, cat. H4001), and […] bovine insulin (Sigma-Aldrich, cat. I6634). The K86415-001-R-J1-PDC line was cultured in 6D media, which includes all 6C/Colon 1B media components minus the L-WRN conditioned media. The 485176-168-R4-J1-PDC was cultured in PANC media, which includes all 6C/Colon 1B media plus 100 ng/mL human FGF-10 (PeproTech, cat. 100-26), 500 nM SB-431542 (Selleckchem, cat. S1067), and 10 nM gastrin (Tocris Bioscience, cat. 3006). […]
# [1] = second compound 0.0316 µM, first compound 0.0316 µM
# [2] = second compound 0.0316 µM, first compound 0.1 µM
# [3] = second compound 0.0316 µM, first compound 0.316 µM
# [4] = second compound 0.0316 µM, first compound 1 µM
# [5] = second compound 0.0316 µM, first compound 3.16 µM
# [6] = second compound 0.0316 µM, first compound 10 µM
# [7] = second compound 0.1 µM, first compound 0.0316 µM
# [8] = second compound 0.1 µM, first compound 0.1 µM
# [9] = second compound 0.1 µM, first compound 0.316 µM
# [10] = second compound 0.1 µM, first compound 1 µM
# [11] = second compound 0.1 µM, first compound 3.16 µM
# [12] = second compound 0.1 µM, first compound 10 µM
# [13] = second compound 0.316 µM, first compound 0.0316 µM
# [14] = second compound 0.316 µM, first compound 0.1 µM
# [15] = second compound 0.316 µM, first compound 0.316 µM
# [16] = second compound 0.316 µM, first compound 1 µM
# [17] = second compound 0.316 µM, first compound 3.16 µM
# [18] = second compound 0.316 µM, first compound 10 µM
# [19] = second compound 1 µM, first compound 0.0316 µM
# [20] = second compound 1 µM, first compound 0.1 µM
# [21] = second compound 1 µM, first compound 0.316 µM
# [22] = second compound 1 µM, first compound 1 µM
# [23] = second compound 1 µM, first compound 3.16 µM
# [24] = second compound 1 µM, first compound 10 µM
# 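Note: spheroids exposed to compounds for 7 days before viability read.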
structure (smiles),measurement,setting,value
C[C@@H](NC(=O)c1ncnc(N)c1Cl)c1ncc(C(=O)Nc2cc(C(F)(F)F)c(Cl)cn2)s1 + C=CC(=O)N1CCN(c2nc(OCC3CCCN3C)nc3c(F)c(-c4nc(N)cc(C)c4C(F)(F)F)c(Cl)cc23)C(C)C1,IC50,second compound 0.00316 µM,> 10000 nM
same,IC50,second compound 0.01 µM,> 10000 nM
same,IC50,second compound 0.0316 µM,> 10000 nM
same,IC50,second compound 0.1 µM,> 10000 nM
same,IC50,second compound 0.316 µM,> 10000 nM
same,IC50,second compound 1 µM,> 10000 nM
same,"viability, T/C","second compound 0.00316 µM, first compound 0.0316 µM",102%
same,"viability, T/C","second compound 0.00316 µM, first compound 0.1 µM",104%
same,"viability, T/C","second compound 0.00316 µM, first compound 0.316 µM",73.2%
same,"viability, T/C","second compound 0.00316 µM, first compound 1 µM",86.2%
same,"viability, T/C","second compound 0.00316 µM, first compound 3.16 µM",93.9%
same,"viability, T/C","second compound 0.00316 µM, first compound 10 µM",106%
same,"viability, T/C","second compound 0.01 µM, first compound 0.0316 µM",80.8%
same,"viability, T/C","second compound 0.01 µM, first compound 0.1 µM",83.8%
same,"viability, T/C","second compound 0.01 µM, first compound 0.316 µM",114%
same,"viability, T/C","second compound 0.01 µM, first compound 1 µM",89.5%
same,"viability, T/C","second compound 0.01 µM, first compound 3.16 µM",126%
same,"viability, T/C","second compound 0.01 µM, first compound 10 µM",71.2%
same,"viability, T/C",[1],104%
same,"viability, T/C",[2],113%
same,"viability, T/C",[3],84.3%
same,"viability, T/C",[4],97.4%
same,"viability, T/C",[5],122%
same,"viability, T/C",[6],72.2%
same,"viability, T/C",[7],86.4%
same,"viability, T/C",[8],103%
same,"viability, T/C",[9],103%
same,"viability, T/C",[10],95.1%
same,"viability, T/C",[11],121%
same,"viability, T/C",[12],97.3%
same,"viability, T/C",[13],103%
same,"viability, T/C",[14],92.3%
same,"viability, T/C",[15],95.5%
same,"viability, T/C",[16],87%
same,"viability, T/C",[17],104%
same,"viability, T/C",[18],84.7%
same,"viability, T/C",[19],104%
same,"viability, T/C",[20],82%
same,"viability, T/C",[21],82.4%
same,"viability, T/C",[22],92.1%
same,"viability, T/C",[23],91.2%
same,"viability, T/C",[24],89.8%
CC1(O)CCCC1n1c(=O)c(C(F)F)cc2cnc(NC3CCN(S(C)(=O)=O)CC3)nc21 (centres undefined) + C#Cc1c(F)ccc2cc(O)cc(-c3ncc4c(N5CC6CCC(C5)N6)nc(OCC56CCCN5CC(F)C6)nc4c3F)c12,IC50,second compound 0.0316 µM,570 nM
same,IC50,second compound 0.1 µM,104 nM
same,IC50,second compound 0.316 µM,< 31.6 nM
same,IC50,second compound 1 µM,< 31.6 nM
same,IC50,second compound 3.16 µM,< 31.6 nM
same,IC50,second compound 10 µM,< 31.6 nM
same,"viability, T/C",[1],71.2%
same,"viability, T/C",[2],69.4%
same,"viability, T/C",[3],47.3%
same,"viability, T/C",[4],43.7%
same,"viability, T/C",[5],33.4%
same,"viability, T/C",[6],1.2%
same,"viability, T/C",[7],65.4%
same,"viability, T/C",[8],50.3%
same,"viability, T/C",[9],31.8%
same,"viability, T/C",[10],27.8%
same,"viability, T/C",[11],20.9%
same,"viability, T/C",[12],0.42%
same,"viability, T/C",[13],23.6%
same,"viability, T/C",[14],23.3%
same,"viability, T/C",[15],17%
same,"viability, T/C",[16],16.9%
same,"viability, T/C",[17],11.4%
same,"viability, T/C",[18],0.33%
same,"viability, T/C",[19],15.6%
same,"viability, T/C",[20],13.1%
same,"viability, T/C",[21],10%
same,"viability, T/C",[22],12.4%
same,"viability, T/C",[23],10.8%
same,"viability, T/C",[24],0.24%
same,"viability, T/C","second compound 3.16 µM, first compound 0.0316 µM",11.4%
same,"viability, T/C","second compound 3.16 µM, first compound 0.1 µM",12.1%
same,"viability, T/C","second compound 3.16 µM, first compound 0.316 µM",9.69%
same,"viability, T/C","second compound 3.16 µM, first compound 1 µM",8.93%
same,"viability, T/C","second compound 3.16 µM, first compound 3.16 µM",9.39%
same,"viability, T/C","second compound 3.16 µM, first compound 10 µM",0.27%
same,"viability, T/C","second compound 10 µM, first compound 0.0316 µM",9.74%
same,"viability, T/C","second compound 10 µM, first compound 0.1 µM",8.08%
same,"viability, T/C","second compound 10 µM, first compound 0.316 µM",9.05%
same,"viability, T/C","second compound 10 µM, first compound 1 µM",8.95%
same,"viability, T/C","second compound 10 µM, first compound 3.16 µM",8.58%
same,"viability, T/C","second compound 10 µM, first compound 10 µM",0.36%
